Measurements from ChEMBL document CHEMBL1671854, “ramR mutations involved in efflux-mediated multidrug resistance in Salmonella enterica serovar Typhimurium” (2008).
Converted amounts (≈) assume the structure as drawn.

Columns and labels:
Assay type in all cases: functional, Salmonella enterica subsp. enterica serovar Typhimurium
Salmonella typhimurium [1] = experiment: Antimicrobial activity against multidrug-resistant Salmonella enterica serovar Typhimurium 902SA92 harboring GyrA S83A and D87N, GyrB S464F and ParC S80I mutant genes by agar doubling dilution method
Salmonella typhimurium [2] = experiment: Antimicrobial activity against multidrug-resistant Salmonella enterica serovar Typhimurium 902SA92 harboring plasmid encoded RamR gene, GyrA S83A and D87N, GyrB S464F and ParC S80I mutant genes by agar doubling dilution method
Salmonella typhimurium [3] = experiment: Antimicrobial activity against ramA::kan-deficient Salmonella enterica serovar Typhimurium 902SA92 harboring GyrA S83A and D87N, GyrB S464F and ParC S80I mutant genes by agar doubling dilution method
Salmonella typhimurium [4] = experiment: Antimicrobial activity against multidrug-resistant Salmonella enterica serovar Typhimurium 102SA00 harboring GyrA S83A and D87N, GyrB S464F and ParC S80I mutant genes by agar doubling dilution method
Salmonella typhimurium [5] = experiment: Antimicrobial activity against multidrug-resistant Salmonella enterica serovar Typhimurium 102SA00 harboring plasmid encoded RamR gene, GyrA S83A and D87N, GyrB S464F and ParC S80I mutant genes by agar doubling dilution method
Salmonella typhimurium [6] = experiment: Antimicrobial activity against ramA::kan-deficient Salmonella enterica serovar Typhimurium 102SA00 harboring GyrA S83A and D87N, GyrB S464F and ParC S80I mutant genes by agar doubling dilution method
Salmonella typhimurium [7] = experiment: Antimicrobial activity against multidrug-resistant Salmonella enterica serovar Typhimurium BN10055 harboring GyrA S83Y mutant gene by agar doubling dilution method
Salmonella typhimurium [8] = experiment: Antimicrobial activity against multidrug-resistant Salmonella enterica serovar Typhimurium BN10055 harboring plasmid encoded RamR gene, GyrA S83Y mutant gene by agar doubling dilution method
Salmonella typhimurium [9] = experiment: Antimicrobial activity against ramA::kan-deficient Salmonella enterica serovar Typhimurium BN10055 harboring GyrA S83Y mutant gene by agar doubling dilution method
Salmonella typhimurium [10] = experiment: Antimicrobial activity against multidrug-resistant Salmonella enterica serovar Typhimurium 543SA98 harboring GyrA […] mutant gene by agar doubling dilution method
Salmonella typhimurium [11] = experiment: Antimicrobial activity against multidrug-resistant Salmonella enterica serovar Typhimurium 543SA98 harboring plasmid encoded RamR gene, GyrA S83Y mutant gene by agar doubling dilution method
Salmonella typhimurium [12] = experiment: Antimicrobial activity against ramA::kan-deficient Salmonella enterica serovar Typhimurium 543SA98 harboring GyrA S83Y mutant gene by agar doubling dilution method
Salmonella typhimurium [13] = experiment: Antimicrobial activity against multidrug-resistant Salmonella enterica serovar Typhimurium BN9945 by agar doubling dilution method
Salmonella typhimurium [14] = experiment: Antimicrobial activity against multidrug-resistant Salmonella enterica serovar Typhimurium BN9945 harboring plasmid encoded RamR gene by agar doubling dilution method
Salmonella typhimurium [15] = experiment: Antimicrobial activity against ramA::kan-deficient Salmonella enterica serovar Typhimurium BN9945 by agar doubling dilution method
Salmonella typhimurium [16] = experiment: Antimicrobial activity against multidrug-resistant Salmonella enterica serovar Typhimurium BN9181 by agar doubling dilution method
Salmonella typhimurium [17] = experiment: Antimicrobial activity against multidrug-resistant Salmonella enterica serovar Typhimurium BN9181 harboring plasmid encoded RamR gene by agar doubling dilution method
Salmonella typhimurium [18] = experiment: Antimicrobial activity against ramA::kan-deficient Salmonella enterica serovar Typhimurium BN9181 by agar doubling dilution method
Salmonella typhimurium [19] = experiment: Antimicrobial activity against Salmonella enterica serovar Typhimurium S/921495 by agar doubling dilution method
Salmonella typhimurium [20] = experiment: Antimicrobial activity against marR::kan-deficient Salmonella enterica serovar Typhimurium S/921495 by agar doubling dilution method
Salmonella typhimurium [21] = experiment: Antimicrobial activity against marR-deficient Salmonella enterica serovar Typhimurium S/921495 by agar doubling dilution method
Salmonella typhimurium [22] = experiment: Antimicrobial activity against marA::kan-deficient Salmonella enterica serovar Typhimurium S/921495 by agar doubling dilution method
Salmonella typhimurium [23] = experiment: Antimicrobial activity against soxR::kan-deficient Salmonella enterica serovar Typhimurium S/921495 by agar doubling dilution method
Salmonella typhimurium [24] = experiment: Antimicrobial activity against soxS::kan-deficient Salmonella enterica serovar Typhimurium S/921495 by agar doubling dilution method
Salmonella typhimurium [25] = experiment: Antimicrobial activity against Salmonella enterica serovar Typhimurium S/921495 harboring plasmid encoded RamR gene by agar doubling dilution method
Salmonella typhimurium [26] = experiment: Antimicrobial activity against ramR-deficient Salmonella enterica serovar Typhimurium S/921495 harboring plasmid encoded RamR gene by agar doubling dilution method
Salmonella typhimurium [27] = experiment: Antimicrobial activity against ramA::kan-deficient Salmonella enterica serovar Typhimurium S/921495 by agar doubling dilution method
Salmonella typhimurium [28] = experiment: Antimicrobial activity against Salmonella enterica serovar Typhimurium BN18 by agar doubling dilution method
Salmonella typhimurium [29] = experiment: Antimicrobial activity against Salmonella enterica serovar Typhimurium BN18 harboring plasmid encoded RamR gene by agar doubling dilution method
Salmonella typhimurium [30] = experiment: Antimicrobial activity against ramA::kan-deficient Salmonella enterica serovar Typhimurium BN18 by agar doubling dilution method
Salmonella typhimurium [31] = experiment: Antimicrobial activity against Salmonella enterica serovar Typhimurium BN18/21 by agar doubling dilution method
Salmonella typhimurium [32] = experiment: Antimicrobial activity against Salmonella enterica serovar Typhimurium BN18/21 harboring plasmid encoded RamR gene by agar doubling dilution method
Salmonella typhimurium [33] = experiment: Antimicrobial activity against ramA::kan-deficient Salmonella enterica serovar Typhimurium BN18/21 by agar doubling dilution method
Salmonella typhimurium [34] = experiment: Antimicrobial activity against Salmonella enterica serovar Typhimurium BN18/41 harboring GyrA G81C,acrR mutant genes by agar doubling dilution method
Salmonella typhimurium [35] = experiment: Antimicrobial activity against Salmonella enterica serovar Typhimurium BN18/41 harboring plasmid encoded RamR gene, GyrA G81C,acrR mutant genes by agar doubling dilution method
Salmonella typhimurium [36] = experiment: Antimicrobial activity against ramA::kan-deficient Salmonella enterica serovar Typhimurium BN18/41 harboring plasmid encoded RamR gene, GyrA G81C,acrR mutant genes by agar doubling dilution method
Salmonella typhimurium [37] = experiment: Antimicrobial activity against Salmonella enterica serovar Typhimurium BN18/71 harboring GyrA G81C, acrR mutant genes by agar doubling dilution method
Salmonella typhimurium [38] = experiment: Antimicrobial activity against Salmonella enterica serovar Typhimurium BN18/71 harboring plasmid encoded RamR gene, GyrA G81C,acrR mutant genes by agar doubling dilution method
Salmonella typhimurium [39] = experiment: Antimicrobial activity against ramA::kan-deficient Salmonella enterica serovar Typhimurium BN18/71 harboring plasmid encoded RamR gene, GyrA G81C,acrR mutant genes by agar doubling dilution method
Salmonella typhimurium [40] = experiment: Antimicrobial activity against ramR::kan-deficient Salmonella enterica serovar Typhimurium S/921495 by agar doubling dilution method
Salmonella typhimurium [41] = experiment: Antimicrobial activity against ramR-deficient Salmonella enterica serovar Typhimurium S/921495 by agar doubling dilution method

Compound: CS(=O)(=O)c1ccc([C@@H](O)[C@@H](CF)NC(=O)C(Cl)Cl)cc1 [FLORFENICOL]
- MIC (Salmonella typhimurium [1]): 16 µg/mL (≈ 44.7 µM)
- MIC (Salmonella typhimurium [2]): 4 µg/mL (≈ 11.2 µM)
- MIC (Salmonella typhimurium [3]): 4 µg/mL (≈ 11.2 µM)
- MIC (Salmonella typhimurium [4]): 16 µg/mL (≈ 44.7 µM)
- MIC (Salmonella typhimurium [5]): 4 µg/mL (≈ 11.2 µM)
- MIC (Salmonella typhimurium [6]): 4 µg/mL (≈ 11.2 µM)
- MIC (Salmonella typhimurium [7]): 128 µg/mL (≈ 357 µM)
- MIC (Salmonella typhimurium [8]): 128 µg/mL (≈ 357 µM)
- MIC (Salmonella typhimurium [9]): 32 µg/mL (≈ 89.3 µM)
- MIC (Salmonella typhimurium [10]): 512 µg/mL (≈ 1430 µM)
- MIC (Salmonella typhimurium [11]): 128 µg/mL (≈ 357 µM)
- MIC (Salmonella typhimurium [12]): 128 µg/mL (≈ 357 µM)
- MIC (Salmonella typhimurium [13]): 128 µg/mL (≈ 357 µM)
- MIC (Salmonella typhimurium [14]): 64 µg/mL (≈ 179 µM)
- MIC (Salmonella typhimurium [15]): 64 µg/mL (≈ 179 µM)
- MIC (Salmonella typhimurium [16]): 32 µg/mL (≈ 89.3 µM)
- MIC (Salmonella typhimurium [17]): 32 µg/mL (≈ 89.3 µM)
- MIC (Salmonella typhimurium [18]): 32 µg/mL (≈ 89.3 µM)
- MIC (Salmonella typhimurium [19]): 4 µg/mL (≈ 11.2 µM)
- MIC (Salmonella typhimurium [20]): 4 µg/mL (≈ 11.2 µM)
- MIC (Salmonella typhimurium [21]): 4 µg/mL (≈ 11.2 µM)
- MIC (Salmonella typhimurium [22]): 4 µg/mL (≈ 11.2 µM)
- MIC (Salmonella typhimurium [23]): 4 µg/mL (≈ 11.2 µM)
- MIC (Salmonella typhimurium [24]): 4 µg/mL (≈ 11.2 µM)
- MIC (Salmonella typhimurium [25]): 4 µg/mL (≈ 11.2 µM)
- MIC (Salmonella typhimurium [26]): 4 µg/mL (≈ 11.2 µM)
- MIC (Salmonella typhimurium [27]): 4 µg/mL (≈ 11.2 µM)
- MIC (Salmonella typhimurium [28]): 4 µg/mL (≈ 11.2 µM)
- MIC (Salmonella typhimurium [29]): 4 µg/mL (≈ 11.2 µM)
- MIC (Salmonella typhimurium [30]): 2 µg/mL (≈ 5.58 µM)
- MIC (Salmonella typhimurium [31]): 16 µg/mL (≈ 44.7 µM)
- MIC (Salmonella typhimurium [32]): 4 µg/mL (≈ 11.2 µM)
- MIC (Salmonella typhimurium [33]): 4 µg/mL (≈ 11.2 µM)
- MIC (Salmonella typhimurium [34]): 64 µg/mL (≈ 179 µM)
- MIC (Salmonella typhimurium [35]): 8 µg/mL (≈ 22.3 µM)
- MIC (Salmonella typhimurium [36]): 8 µg/mL (≈ 22.3 µM)
- MIC (Salmonella typhimurium [37]): 64 µg/mL (≈ 179 µM)
- MIC (Salmonella typhimurium [38]): 8 µg/mL (≈ 22.3 µM)
- MIC (Salmonella typhimurium [39]): 8 µg/mL (≈ 22.3 µM)
- MIC (Salmonella typhimurium [40]): 16 µg/mL (≈ 44.7 µM)
- MIC (Salmonella typhimurium [41]): 16 µg/mL (≈ 44.7 µM)

Compound: CC1CCc2cc(F)cc3c(=O)c(C(=O)O)cn1c23 (configuration not stated) [FLUMEQUINE]
- MIC (Salmonella typhimurium [1]): 2050 µg/mL (≈ 7840 µM)
- MIC (Salmonella typhimurium [2]): 512 µg/mL (≈ 1960 µM)
- MIC (Salmonella typhimurium [3]): 512 µg/mL (≈ 1960 µM)
- MIC (Salmonella typhimurium [4]): 2050 µg/mL (≈ 7840 µM)
- MIC (Salmonella typhimurium [5]): 512 µg/mL (≈ 1960 µM)
- MIC (Salmonella typhimurium [6]): 512 µg/mL (≈ 1960 µM)
- MIC (Salmonella typhimurium [7]): 64 µg/mL (≈ 245 µM)
- MIC (Salmonella typhimurium [8]): 64 µg/mL (≈ 245 µM)
- MIC (Salmonella typhimurium [9]): 16 µg/mL (≈ 61.2 µM)
- MIC (Salmonella typhimurium [10]): 32 µg/mL (≈ 122 µM)
- MIC (Salmonella typhimurium [11]): 8 µg/mL (≈ 30.6 µM)
- MIC (Salmonella typhimurium [12]): 8 µg/mL (≈ 30.6 µM)
- MIC (Salmonella typhimurium [13]): 32 µg/mL (≈ 122 µM)
- MIC (Salmonella typhimurium [14]): 8 µg/mL (≈ 30.6 µM)
- MIC (Salmonella typhimurium [15]): 8 µg/mL (≈ 30.6 µM)
- MIC (Salmonella typhimurium [16]): 0.5 µg/mL (≈ 1.91 µM)
- MIC (Salmonella typhimurium [17]): 0.5 µg/mL (≈ 1.91 µM)
- MIC (Salmonella typhimurium [18]): 0.5 µg/mL (≈ 1.91 µM)
- MIC (Salmonella typhimurium [19]): 0.5 µg/mL (≈ 1.91 µM)
- MIC (Salmonella typhimurium [20]): 0.5 µg/mL (≈ 1.91 µM)
- MIC (Salmonella typhimurium [21]): 0.5 µg/mL (≈ 1.91 µM)
- MIC (Salmonella typhimurium [22]): 0.5 µg/mL (≈ 1.91 µM)
- MIC (Salmonella typhimurium [23]): 0.5 µg/mL (≈ 1.91 µM)
- MIC (Salmonella typhimurium [24]): 0.5 µg/mL (≈ 1.91 µM)
- MIC (Salmonella typhimurium [25]): 0.5 µg/mL (≈ 1.91 µM)
- MIC (Salmonella typhimurium [26]): 0.5 µg/mL (≈ 1.91 µM)
- MIC (Salmonella typhimurium [27]): 0.5 µg/mL (≈ 1.91 µM)
- MIC (Salmonella typhimurium [28]): 0.5 µg/mL (≈ 1.91 µM)
- MIC (Salmonella typhimurium [29]): 0.5 µg/mL (≈ 1.91 µM)
- MIC (Salmonella typhimurium [30]): 0.5 µg/mL (≈ 1.91 µM)
- MIC (Salmonella typhimurium [31]): 8 µg/mL (≈ 30.6 µM)
- MIC (Salmonella typhimurium [32]): 2 µg/mL (≈ 7.66 µM)
- MIC (Salmonella typhimurium [33]): 2 µg/mL (≈ 7.66 µM)
- MIC (Salmonella typhimurium [34]): 256 µg/mL (≈ 980 µM)
- MIC (Salmonella typhimurium [35]): 64 µg/mL (≈ 245 µM)
- MIC (Salmonella typhimurium [36]): 64 µg/mL (≈ 245 µM)
- MIC (Salmonella typhimurium [37]): 512 µg/mL (≈ 1960 µM)
- MIC (Salmonella typhimurium [38]): 256 µg/mL (≈ 980 µM)
- MIC (Salmonella typhimurium [39]): 256 µg/mL (≈ 980 µM)
- MIC (Salmonella typhimurium [40]): 2 µg/mL (≈ 7.66 µM)
- MIC (Salmonella typhimurium [41]): 2 µg/mL (≈ 7.66 µM)
